Assay results: PubChem BioAssay AID179 (DTP/NCI, 2004)
Calls of active or inactive are those of the source.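 How the source made its calls: active means compounds giving half or more protection of infected cells from virus-caused growth loss, again on retest; inactive means the rest.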

Test system: CEM cells HIV-1 protection, formazan growth assay
Assay: NCI AIDS Antiviral Assay
Conditions: for IC50: measured here: growth of uninfected CEM cells
Summary of the method: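 Steps: treat uninfected and HIV-1-infected human CEM cells at five drug levels; quantify growth by soluble formazan; retest any compound reaching 50% protection; classify actives from the retest.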

Compound | EC50 | IC50 | outcome
COc1cc2c(cc1OC)C(=O)/C(=C/c1ccc([N+](=O)[O-])cc1)CC2 | 155 µM | > 200 µM | –
Cc1ccc(N=Nc2c(C)nn(C(=O)CC(=O)Nc3ccc(Cl)cc3)c2C)cc1C | > 200 µM | > 200 µM | –
Cc1c2ccccc2nc(CSOCCO)[n+]1[O-] | > 200 µM | > 200 µM | –
CCN(CC)CCn1ncc2c3c(=O)c4cccnc4n(CCN(CC)CC)c3ccc21 | > 200 µM | 3.47 µM | –
Cc1ccc(S(=O)(=O)NC(=O)C2S(=O)(=O)OCCOS2(=O)=O)cc1 | > 3890 µM | 77.6 µM | –
C=C1CC(c2ccc(OCCCN3C(=O)c4ccccc4C3=O)c(OC)c2)OC1=O (stereo not given) | > 20 µM | 0.912 µM | –
Cn1c(=N)c(C#N)c2n(c1=S)CCCCCCC2 | > 200 µM | 97.7 µM | –
COc1c2occc2c(S(=O)(=O)O)c2ccc(=O)oc12 | > 302 µM | > 302 µM | –
Cn1c(-c2cccc(N)c2)[n+](C)c2ccccc21 | > 200 µM | 126 µM | –
COC(=O)C1=C(C(=O)OC)C2(C)CCC(=O)C1O2 (stereo not given) | > 200 µM | > 200 µM | –
O=C1NC(=O)c2c3ccc(c21)CCc1ccc(c2c1C(=O)NC2=O)CC3 | > 15.1 µM | > 15.1 µM | –
CC(=O)NC(CCCCN)C(=O)NCc1ccccc1 (stereo not given) | > 912 µM | > 912 µM | –
CC(C)CC(NC(=O)C(C)(CI)Cc1ccccc1)C(=O)Nc1ccccc1 (stereo not given) | > 200 µM | 170 µM | –
CC(C)(C)C1CCC2c3c([nH]c4ncccc34)C3C(=O)N(c4ccccc4)C(=O)C3C2C1 (stereo not given) | > 1.78 µM | > 1.78 µM | –
Cc1ccc(S(=O)(=O)Sc2nnnn2-c2ccccc2)cc1 | > 15.8 µM | > 15.8 µM | –
CC1=CC=NN2C(=O)[C@H](C)C2C1 (stereo not given in full) | > 1510 µM | > 1510 µM | –
O=C(O)c1cc(S(=O)(=O)N=NC=C2c3ccccc3N(O)c3ccccc32)ccc1O | – | – | inactive
Cc1nc(Nc2ccccc2)sc1C(=O)NNC(N)=O | > 151 µM | 63.1 µM | –
COC(=O)c1c(N)n[nH]c1N | – | – | inactive

Compound | EC50 | IC50 | outcome
Cc1cc2c3c(c1)CCCN3CCC2 | > 200 µM | > 200 µM | –
Cc1[nH]c2ccccc2c1-c1n[nH]c(=O)c2ccccc12 | – | – | inactive
COc1nc2c(c(=O)[nH]1)N=C(c1ccc([N+](=O)[O-])cc1)CC(c1ccccc1)N2 (stereo not given) | > 200 µM | 46.8 µM | –
Cc1nnc(SCC2=C(C(=O)O)N3C(=O)C(NC(=O)Cn4cc(Cl)c(=O)c(Cl)c4)C3SC2)s1 (stereo not given) | > 200 µM | > 200 µM | –
COC(=O)c1ccccc1COC(=O)c1cc(C(=CCC[C@H]2CC[C@@]3(C)[C@@H](CC[C@@H]4[C@@H]3CC[C@]3(C)[C@@H](C(C)CCCC(C)C)CC[C@@H]43)C2)c2cc(Cl)c(OCc3ccccc3C(=O)OC)c(C(=O)OCc3ccccc3C(=O)OC)c2)cc(Cl)c1OCc1ccccc1C(=O)OC (stereo not given in full) | > 200 µM | > 200 µM | –
NC(N)=NS(=O)(=O)c1ccc(NC(=O)c2ccc3nc4ccccc4c(Nc4ccc(S(N)(=O)=O)cc4)c3c2)cc1 | > 200 µM | 148 µM | –
O=C(NCCc1c[nH]c2ccccc12)C(F)(F)F | > 200 µM | > 200 µM | –
N#Cc1c(N)nc(SCc2ccccc2)c(C#N)c1-c1ccc(O)cc1 | > 200 µM | 10 µM | –
CCOC(=O)CCC(NC(=O)c1ccc(Nc2nc3cc(C(F)(F)F)ccc3nc2-c2ccccc2)cc1)C(=O)OCC (stereo not given) | > 200 µM | 8.13 µM | –
C=CCC1C(=O)Nc2cccc3ncn(c23)C1=O (stereo not given) | > 200 µM | 186 µM | –
CC(=O)OC[C@]12[C@H](OC(C)=O)[C@H](OC(C)=O)[C@@H]3C(OC(C)=O)[C@@]14OC3(C)COC(=O)c1cccnc1CCC(C)C(=O)OC([C@H]4C)[C@H](O)[C@@H]2OC(=O)c1ccccc1 (stereo not given in full) | – | – | inactive
CCCCCCCCCCCCCCCC(=O)OCC1OC(OC)C2NP(=O)(N(CCCl)CCCl)OC1C2O (stereo not given) | > 8.51 µM | 0.155 µM | –
Cn1c2c(c3ccccc31)C1CCCCC1C1C(=O)NC(=O)C21 (stereo not given) | – | – | inactive
C[N+]1(CC(=O)O)C2CCC1CC(O)C2 (stereo not given) | > 200 µM | > 200 µM | –
COc1ccc(OC2OC(CO)C(O)C(O)C2O)cc1 (stereo not given) | > 200 µM | > 200 µM | –
CN(C)CCCN1CCc2c([nH]c3ccccc23)C1c1cccnc1 (stereo not given) | > 107 µM | > 107 µM | –
O=c1oc2ccccc2c2nc3c([N+](=O)[O-])cccc3cc12 | > 200 µM | 8.13 µM | –
CCCCc1ccc(Nc2nc3c(ncn3C3OC(COC(C)=O)C(OC(C)=O)C3OC(C)=O)c(=O)[nH]2)cc1 (stereo not given) | > 200 µM | 11.7 µM | –
CCSCC1OC2OC3C(CSCC)OC(OC4C(CSCC)OC(OC5C(CSCC)OC(OC6C(CSCC)OC(OC7C(CSCC)OC(OC8C(CSCC)OC(OC1C(OS(=O)(=O)O)C2OS(=O)(=O)O)C(OS(=O)(=O)O)C8OS(=O)(=O)O)C(OS(=O)(=O)O)C7OS(=O)(=O)O)C(OS(=O)(=O)O)C6OS(=O)(=O)O)C(OS(=O)(=O)O)C5OS(=O)(=O)O)C(OS(=O)(=O)O)C4OS(=O)(=O)O)C(OS(=O)(=O)O)C3OS(=O)(=O)O (stereo not given) | 2.75 µM | 50.1 µM | –

Compound | EC50 | IC50 | outcome
COc1cccc(/C(CC(O)(C(F)(F)F)C(F)(F)F)=N\N(C)C)c1 | > 200 µM | > 200 µM | –
COc1ccc2nc3cc(Cl)ccc3c(NCCCN(C)CCCNc3ccc4ncn5c6ccccc6c(=O)c3c45)c2c1 | > 0.251 µM | 0.166 µM | –
Clc1cccc(C2=NOC3COC4C=CC=CC4OCC23)c1 (stereo not given) | > 58.9 µM | > 58.9 µM | –
Cc1ccc(S(=O)(=O)O/N=C2\CCC\C2=C/c2ccccc2)cc1 | – | – | inactive
CN(C)CCCNc1c(C#N)[n+]([O-])c2cc(Cl)ccc2[n+]1[O-] | > 2 µM | 1 µM | –
CO/C(=N\Nc1ccc([N+](=O)[O-])cc1)P(=O)(OC(C)C)OC(C)C | > 12.9 µM | > 12.9 µM | –
Cc1csc(NNC(=O)Nc2ccccc2)n1 | > 129 µM | 43.7 µM | –
Cc1ccc(NC(=S)NNC(=O)c2cc(-c3ccccc3)nc3ccccc23)cc1C | > 200 µM | 12.6 µM | –
CN(/N=C/c1ccnc2ccccc12)c1c([N+](=O)[O-])cc([N+](=O)[O-])cc1[N+](=O)[O-] | > 47.9 µM | 8.71 µM | –
O=C(CC12C3C4C1C1C2C3C41CC(=O)NO)NO (stereo not given) | > 251 µM | 49 µM | –
CCOC(=O)Cc1c(Cc2[nH]c(C(=O)OCc3ccccc3)c(CC(=O)OCC)c2CC(=O)OCC)[nH]c(C(=O)OCc2ccccc2)c1CC(=O)OCC | > 5.01 µM | > 5.01 µM | –
Cc1ccc2c(c1)NC(=O)C(N=[N+]=[N-])(c1ccccc1)C2=O (stereo not given) | > 200 µM | 49 µM | –
COc1ccc2cc(C(=O)c3ccccc3C(=O)O)ccc2c1 | – | – | inactive
CCO/S(=N/S(=O)(=O)c1ccccc1)c1ccccc1[N+](=O)[O-] (stereo not given) | > 708 µM | 182 µM | –
S=c1cn[nH]c2ccc(S)cc12 | > 182 µM | 102 µM | –
CCOC(=O)CNc1nnnn1C1OC(CO)C(O)C1O (stereo not given) | > 832 µM | > 832 µM | –
O=C(CC(CC(=O)Oc1c(Br)cc(Br)cc1C(=O)O)C(=O)Oc1c(Br)cc(Br)cc1C(=O)O)Oc1c(Br)cc(Br)cc1C(=O)O | > 245 µM | 85.1 µM | –
COC(=O)c1cc(C(=CCN[C@@H]2CC[C@@]3(C)[C@@H](CC[C@@H]4[C@@H]3CC[C@]3(C)[C@@H]([C@H](C)CCCC(C)C)CC[C@@H]43)C2)c2cc(Cl)c(OC)c(C(=O)OC)c2)cc(Cl)c1OC | > 100 µM | > 100 µM | –
